# Test results from patent US20100166727A1, “S-Adenosylmethionine And Methylthioadensosine In Chemoprevention And Treatment Of Colon Polyps And Cancer” (UNIVERSITY OF SOUTHERN CALIFORNIA, priority 2007, published 2010).
# Experiments:
# human GSS promoter = assay: Human GSS promoter activity in HT-29 cells; type: cell-based; details: SAMe or MTA treatment as for MAT2A promoter
# Source text: The human MAT2A promoter construct[…] and GSS promoter construct −1686/−46-LUC were previously described (33, 34, 50), and subcloned in the sense orientation upstream of the luciferase coding sequence of the pGL-3 enhancer vector (Promega). Both promoter constructs contain maximal promoter activity. Specificity of SAMe and MTA on promoter activity was examined by transfecting HT-29 cells with the GSS promoter construct and treating cells with SAMe or MTA as above.
# HT-29 cells [1] = assay: Cell growth by MTT assay in HT-29 cells; type: cell-based, human
# Protocol: Cell growth was measured by the cell growth determination kit MTT from Sigma (St. Louis, Mo.). The MTT assay measures the cell proliferation rate and reduction in cell viability. HT-29 or RKO cells (1×10^4/well) were plated in 96-well plates and treated with growth factors (all 100 ng/ml), SAMe (0.5 to 5 mM), MTA (0.5 to 1 mM), alone or in combination for 16 hrs in serum-free medium. To determine the effect of MAT2A RNAi on mitogen-induced changes in MTT, cells were first treated with RNAi for 48 hrs followed by mitogen treatment for another 24 hrs.
# RKO cells = assay: Apoptosis in RKO cells (HOECHST staining, Annexin V); type: cell-based, human; details: by 24 hrs, RKO cells
# Protocol: Apoptosis was assessed by HOECHST staining (34). Briefly, RKO cells were grown on coverslips and treated with RNAi#1 for 24 hrs and cells were fixed with paraformaldehyde and stained with 8 μg/ml HOECHST 33258 dye for 30 min. Cells with bright, fragmented, condensed nuclei were identified as apoptotic cells using the Nikon Eclipse TE300 fluorescent microscope. At least 5 random fields (at ×300) were counted.
# In these experiments the total treatment duration was limited to 16 hrs to avoid the apoptotic effect. […] Apoptosis was measured by Hoechst staining or Annexin V and propidium iodide staining on flow cytometry.
# HT-29 cells [2] = assay: Cellular SAMe and MTA levels in HT-29 cells; type: cell-based, human
# Protocol: (§1) HT-29 and RKO cells were obtained from the Cell Culture Core of the USC Liver Disease Research Center and grown according to instructions provided by the American Type Culture Collection (ATCC, Rockville, Md.). Prior to treatment with growth factors, SAMe or MTA, medium was changed to 0.1% FBS overnight.
# (§2) Cellular SAMe and MTA levels were measured (51) and polyamine levels were determined (52).
# HT-29 cells [3] = assay: Polyamine levels in HT-29 cells; type: cell-based, human; details: 6 hrs
# Protocol: as §1, §2
# c-FLIP = c-FLIP expression and caspase 8 activation in RKO cells; type: cell-based, human; details: 6 hrs, with concomitant caspase 8 activation
# Protocol: FIG. 27. […] RKO cells were treated with SAMe (0.25-5 mM) or MTA (0.25-2 mM) for 6 hrs and c-FLIP isoform mRNA levels were measured using real-time PCR (A) and protein levels of c-FLIP and caspase 8 by Western blots (B).
# Bcl-xL = Bcl-xL mRNA level in HT-29 cells; type: cell-based, human; details: SAMe 2 mM, 6 hrs
# Protocol: SAMe and MTA induce apoptosis in liver cancer cells by the mitochondrial pathway (14). […] In liver cancer cells, SAMe and MTA induced selectively expression of Bcl-xs, a pro-apoptotic protein (67). We examined whether the same occurs in HT-29 cells. After 6 hrs of MTA (1 mM) treatment, Bcl-xL mRNA level fell by 53% (47±4% of control, results are mean±SE from 4 experiments, p<0.0005). […] This makes these agents particularly attractive in targeting colon cancer cells.
# MAT2A = assay: Intestinal MAT2A expression in mice given SAMe or MTA in drinking water; type: in vivo
# Protocol: FIG. 30. Effects of oral SAMe and MTA on colonic mRNA levels of MAT2A, MAT2 β, and cFLIPL. Mice were fed SAMe (150 to 450 mg/kg/d) or MTA (75 or 150 mg/kg/d) in drinking water for 6 days. Colonic mucosa was scrapped off and gene expression measured by real-time PCR.
# Three-month old male C57/B6 mice were fed ad libitum a standard diet (Harland Tekiad irradiated mouse diet 7912, Madison, Wis.), caged individually and had free access to water supplemented with SAMe ([…]), MTA (75 mg/kg/d), phosphate buffered saline (vehicle for SAMe) or DMSO (0.2%, vehicle for MTA) for 6 days. SAMe and MTA were made fresh daily. The amount of water intake, body weight, and animal behavior were closely monitored. After 6 days, animals were sacrificed, intestine was cut open along the longitudinal axis, and mucosa was stripped from the intestine (46). Mucosa was weighed and a portion processed for SAMe measurement as described below, the rest snap frozen for subsequent RNA extraction.
# Total RNA was isolated by the EZgeno total RNA isolation kit (Genemega, San Giego, Calif.), and subjected to reverse transcription (RT) by using M-MLV Reverse transcriptase (Invitrogen). 2 μl of RT product was subjected to quantitative real-time PCR analysis. The primers and TaqMan probes for MAT2A, MAT2β and Universal PCR Master Mix were purchased from ABI (Foster City, Calif.). Hypoxanthine phosphoribosyl-transferase 1 (HPRT1) and ubiquitin C (UBC) were used as housekeeping genes (48). The thermal profile consisted of 1 cycle at 95° C. for 15 minutes followed by 40 cycles at 95° C. for 15 seconds and at 60° C. for 1 minute. The expression of MAT2A and MAT2β was checked by normalizing the Ct of MAT2A and MAT2β to that of the control housekeeping gene (HPRT1 or UBC) (49). The delta Ct obtained was used to find the relative expression of MAT genes according to the formula: Relative expression=2·^ΔCt, where ΔCt=ΔCt of MAT genes in colon cancer or treated cells—ΔCt of MAT genes in normal colon or control cells.
# MAT III = MAT III (Rattus norvegicus, UniProt P13444); details: cited from earlier work
# Sequence of MAT III (P13444 whole entry): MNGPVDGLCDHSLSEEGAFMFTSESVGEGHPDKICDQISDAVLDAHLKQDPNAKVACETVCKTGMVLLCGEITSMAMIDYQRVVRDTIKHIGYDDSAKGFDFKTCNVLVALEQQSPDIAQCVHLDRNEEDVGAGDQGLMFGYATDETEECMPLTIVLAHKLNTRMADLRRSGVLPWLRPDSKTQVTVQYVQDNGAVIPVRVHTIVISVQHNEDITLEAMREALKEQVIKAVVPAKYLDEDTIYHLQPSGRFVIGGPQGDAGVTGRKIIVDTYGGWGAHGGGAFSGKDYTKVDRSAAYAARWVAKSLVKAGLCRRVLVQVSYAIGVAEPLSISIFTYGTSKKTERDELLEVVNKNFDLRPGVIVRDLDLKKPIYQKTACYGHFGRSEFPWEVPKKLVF
# [4] = 75 mg/kg/d in drinking water, six days
# [5] = 150 mg/kg/d in drinking water, six days
smiles,measurement,setting,value
"C[S+](CC[C@H](N)C(=O)O)C[C@H]1O[C@@H](n2cnc3c(N)ncnc32)[C@H](O)[C@@H]1O (stereo partly shown) [SAMe, S-adenosylmethionine]",human GSS promoter activity,human GSS promoter,no influence on the human GSS promoter activity
same,growth,"HT-29 cells [1]; SAMe 5 mM, 24 hr",71 % of control
same,"growth, agent alone","HT-29 cells [1]; SAMe 0.5 to 5 mM, MTA 0.5 to 1 mM, 16 hrs",no effect on growth
same,"mitogenic action of leptin, EGF and IGF-1","HT-29 cells [1]; SAMe 0.5 to 5 mM, MTA 0.5 to 1 mM, 16 hrs, with growth factors",blocked the mitogenic action
same,apoptosis,RKO cells,induced apoptosis in a dose-dependent manner
same,increase of intracellular MTA levels after SAMe treatment,HT-29 cells [2]; 5 mM SAMe for 16 hrs,19 fold
same,intracellular MTA levels after SAMe treatment,HT-29 cells [2]; 5 mM SAMe for 16 hrs,"1,906%"
same,MTA level,"HT-29 cells [2]; 6 hrs, SAMe 2 mM",0.192 ± 0.036 nmol/mg protein
same,SAMe level,"HT-29 cells [2]; 6 hrs, SAMe 2 mM",1.44 ± 0.13 nmol/mg protein
same,MTA level,"HT-29 cells [2]; 6 hrs, SAMe 5 mM",0.354 ± 0.096 nmol/mg protein
same,SAMe level,"HT-29 cells [2]; 6 hrs, SAMe 5 mM",2.19 ± 0.21 nmol/mg protein
same,MTA level,"HT-29 cells [2]; 16 hrs, SAMe 2 mM",0.261 ± 0.035 nmol/mg protein
same,SAMe level,"HT-29 cells [2]; 16 hrs, SAMe 2 mM",1.28 ± 0.01 nmol/mg protein
same,MTA level,"HT-29 cells [2]; 16 hrs, SAMe 5 mM",0.934 ± 0.105 nmol/mg protein
same,SAMe level,"HT-29 cells [2]; 16 hrs, SAMe 5 mM",1.83 ± 0.01 nmol/mg protein
same,Putrescine,HT-29 cells [3]; SAMe 2 mM,0.06 ± 0.01 nmol/mg protein
same,Spermidine,HT-29 cells [3]; SAMe 2 mM,2.37 ± 0.02 nmol/mg protein
same,Spermine,HT-29 cells [3]; SAMe 2 mM,12.39 ± 2.86 nmol/mg protein
same,Putrescine,HT-29 cells [3]; SAMe 5 mM,0.01 ± 0.01 nmol/mg protein
same,Spermidine,HT-29 cells [3]; SAMe 5 mM,1.90 ± 0.18 nmol/mg protein
same,Spermine,HT-29 cells [3]; SAMe 5 mM,13.21 ± 2.58 nmol/mg protein
same,c-FLIP expression,c-FLIP,lowered c-FLIP expression
same,Bcl-xL mRNA level,Bcl-xL,did not have an effect
same,"MAT2A expression, colon",MAT2A; [4],128 ± 20 % of control MAT2A mRNA levels
same,"MAT2A expression, proximal small intestine",MAT2A; [4],99 ± 2 % of control MAT2A mRNA levels
same,"MAT2A expression, colon",MAT2A; [5],85 ± 10 % of control MAT2A mRNA levels
same,"MAT2A expression, proximal small intestine",MAT2A; [5],81 ± 4 % of control MAT2A mRNA levels
same,decrease of MAT2A expression in proximal small intestine,"MAT2A; SAMe 150 mg/kg/d, MTA 75 mg/kg/d, six days",20%
same,inhibition in colonic MAT2A mRNA level,"MAT2A; SAMe 450 mg/kg/d (highest dose), 6 days",75%
same,Inhibition by SAMe,MAT III; MAT III,No
same,stimulation of MAT III,MAT III; at 500 μM SAMe,up to 8 fold
